How the values were obtained:
[1] = test system: epidermal growth factor (EGF) receptors; test: Detection of a growth factor receptor in A431 cells; assay type: cell-based, human; settings: fluorescence microscope; substrate 0.1 mM 15 minutes, or 50 ng/mL direct conjugate
Protocol: 1 ). Cells. Dish-cultured A431 cells (American Type Culture Collection, Rockville, Md.) are digested with trypsin and transferred to glass cover-slips. The cells are subcultured and stabilized for 24 to 48 hours before use.
2). Staining. The slips are transferred into a staining dish, washed with PBS, rinsed in a 0.5% formaldehyde PBS solution for 15 minutes at room temperature, washed with PBS, then incubated in 50 ng/mL biotinylated epidermal growth factor (biotin-EGF; Molecular Probes, Inc., Eugene, Oreg.) in PBS solution for 30 minutes at room temperature. The slips are washed with PBS buffer, then incubated with 1 μg/mL streptavidin alkaline phosphatase (Molecular Probes, Inc.) in a reaction buffer (0.1M TRIS pH 7.8 containing 0.15M NaCl, 50 mM MgCl2 and 0.1 mM ZnCl2) for 30 minutes at room temperature. The slips are washed with the reaction buffer, then incubated with 0.1 mM of a precipitating alkaline phosphatase substrate in the reaction buffer for 15 minutes at room temperature. The substrate solution is filtered through a 0.2 μM filter (Millipore, Bedford, Mass.) before use.
3). Detection. The slips are washed with PBS then examined under a Zeiss fluorescence microscope equipped with suitable filters (typically excitation at about 360 nm and emission past 480 nm). […] Alternatively the fluorescent labeled cells can be detected and the intensity quantitated by flow cytometry.

[2] = target: T1, β-galactosidase (Escherichia coli, UniProt P00722); test: Labeling of lacZ positive fibroblast cells with a β-galactosidase substrate; assay type: cell-based
T1 construct: host or cells: CRE BAG 2 cells (NIH/3T3 cells transformed with a retrovirus containing lacZ)
Protocol: (§1) 1.1 Cell Lines: NIH/3T3 cells (lacZ negative) and CRE BAG 2 cells (3T3 cells transformed with a retrovirus containing the lacZ gene) are employed for cellular assays. Both cell lines can be obtained from American Type Culture Collection Co., Rockville, Md. The cells are grown in a humidified atmosphere of 5% CO2 in Dulbecco's modified Eagle's medium supplemented with 10% calf serum, 50 μg/mL gentamicin, 300 μg/mL L-glutamine and 10 mM HEPES pH 7.4.
1.2 Stock Solution of the Labeling Reagent: The β-galactosidase substrate 1h is dissolved in DMSO to get a 10 mM stock solution.
(§2) 1.3 Working Medium: 100 μL of the dye stock solution is added to 10 mL of fresh culture medium to prepare a "working medium" containing 100 μM of the substrate 1h. This medium is then filter-sterilized by passing through an Acrodisc™ filter (0.45μ pore size).
1.4 Staining and Examination of Cells: Cells grown on coverslips are transferred to the working medium and incubated at 37° C. under normal culture conditions. Cells are examined at the desired time for their fluorescence under a Zeiss microscope equipped with a Hoechst filter set (typically excitation at about 360 nm and emission past 480 nm). […] After 6 hours, the fluorescence intensity of stained CRE BAG 2 cells reaches its highest level.

[3] = test system: β-galactosidase; test: Labeling of lacZ positive yeast cells; assay type: cell-based, Yeast strain EG 123; settings: 200 μM staining solution mixed with equal volume of cells, after 300 μM chloroquine
Protocol: 2.1 Yeast Strain: Yeast strain EG 123 is transformed with plasmid pLGΔ-312S, which carries the yeast CYC1 promotor region and initiation codon fused in frame with the lacZ gene. The cells are grown in a synthetic medium selecting for plasmid maintenance to a density of about 10^7 cells per mL. Cells are collected by centrifugation and resuspended in Z buffer to obtain a cell suspension. Z buffer contains 0.2% β-mercaptoethanol which improves the permeability of both the yeast cell wall and the plasma membrane. Nontransformed yeast cells are used as the control.
2.2 Staining Solution: The galactosidase substrate (1h) is first dissolved in DMSO to get 10 mM stock solution. This solution is diluted 1:50 with distilled water to obtain a 200 μM staining solution.
2.3 Staining and Examination of Cells: To inhibit endogenous vacuolar galactosidase activity, yeast cells are first preincubated with 300 μM chloroquine for 20 minutes at room temperature, then mixed with an equal volume of the substrate-containing staining solution. Most of the lacZ positive cells become fluorescent within 15 minutes. A crystalline precipitate can be observed in the cells, while the lacZ negative cells remain unstained for at least 2 hours.

[4] = test system: NIH/3T3 cells and CRE BAG 2 cells; test: Cytotoxicity and cellular retention in fibroblast cells; assay type: cell-based
Protocol: as §1, §2

T1 sequence (P00722 whole entry): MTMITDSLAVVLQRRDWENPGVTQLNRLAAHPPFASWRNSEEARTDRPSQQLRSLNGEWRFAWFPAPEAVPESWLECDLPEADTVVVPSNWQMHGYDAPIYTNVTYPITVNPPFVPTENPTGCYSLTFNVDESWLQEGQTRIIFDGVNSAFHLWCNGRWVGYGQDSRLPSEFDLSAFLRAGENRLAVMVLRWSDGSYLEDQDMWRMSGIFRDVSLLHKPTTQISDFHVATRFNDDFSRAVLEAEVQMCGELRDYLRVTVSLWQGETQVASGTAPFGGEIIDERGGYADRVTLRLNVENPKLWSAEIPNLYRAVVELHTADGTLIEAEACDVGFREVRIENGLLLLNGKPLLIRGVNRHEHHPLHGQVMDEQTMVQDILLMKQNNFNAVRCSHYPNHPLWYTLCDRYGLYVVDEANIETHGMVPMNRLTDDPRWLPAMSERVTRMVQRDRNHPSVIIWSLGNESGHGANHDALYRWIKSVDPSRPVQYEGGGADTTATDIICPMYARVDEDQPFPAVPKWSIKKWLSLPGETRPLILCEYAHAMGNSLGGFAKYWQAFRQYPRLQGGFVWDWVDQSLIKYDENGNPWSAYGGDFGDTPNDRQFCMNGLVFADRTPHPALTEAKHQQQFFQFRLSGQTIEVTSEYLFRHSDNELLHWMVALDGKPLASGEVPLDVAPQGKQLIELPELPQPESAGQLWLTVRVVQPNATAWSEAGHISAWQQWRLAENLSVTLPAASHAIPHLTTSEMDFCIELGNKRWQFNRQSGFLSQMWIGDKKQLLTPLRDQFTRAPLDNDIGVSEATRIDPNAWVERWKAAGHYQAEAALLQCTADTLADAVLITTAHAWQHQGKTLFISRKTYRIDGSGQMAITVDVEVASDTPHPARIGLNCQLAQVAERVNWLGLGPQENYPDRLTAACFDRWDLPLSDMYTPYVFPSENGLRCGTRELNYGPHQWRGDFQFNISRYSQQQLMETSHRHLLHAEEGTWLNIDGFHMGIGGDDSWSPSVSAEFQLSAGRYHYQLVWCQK

Compound | fluorescence of stained fixed A431 cells [1] | time at which fluorescence intensity of stained CRE BAG 2 cells reaches its highest level ([2]; 100 μM working medium) [h] | fluorescent staining of 3T3 cells (lacZ negative) ([2]; 100 μM, 60 minutes, 37° C.) | fluorescent staining of lacZ positive CRE BAG 2 cells ([2]; 100 μM, 60 minutes, 37° C.) | time for which lacZ negative yeast cells remain unstained [3] | time within which most lacZ positive yeast cells become fluorescent [3] [min] | cytotoxicity [4] | cell morphology and population doubling time ([4]; 100 μM working medium, 24 hours)
fluorescein EGF: direct fluorescent conjugate of epidermal growth factor (NSDSECPLSHDGYCLHDGVCMYIEALDKYACNCVVGYIGERCQYRDLKWWELR; Epidermal growth factor fluorescein label; UniProt P01133 971-1023, looked up) | extremely low visibility and very low photostability | – | – | – | – | – | – | –
O=c1[nH]c(-c2ccccc2O[C@@H]2O[C@H](CO)[C@H](O)[C@H](O)[C@H]2O)nc2ccccc12 [1h] | – | 6 | not in the 3T3 cells | fluorescent spots can be observed in the cytoplasmic area | at least 2 hours | ≤ 15 | no cytotoxicity | look morphologically normal and have the same population doubling time as the control

— patent US5443986A, “Enzymatic analysis using substrates that yield fluorescent precipitates” (Molecular Probes, Inc., priority 1993, dated 1995)
